Assay [1] concerns C57BL/6J mice. The assay is described as follows: Spontaneous running wheel activity in young mice. It is filed as in vivo, mouse. To be noted: for increase over untreated controls in the cumulative distance covered: 55 mg/kg/day in food, 11 weeks. Here is the method: To examine the effect of urolithin A treatment on activity and muscle function in mammals, 10-week-old C57BL/6J mice were treated with either a standard rodent diet or a diet containing urolithin A mixed with food to reach a dosing of 55 mg/kg/day delivered to the mice. Following 11 weeks of treatment with urolithin A, a 23 cm in diameter running wheel was placed in the cage of each mouse. Spontaneous exercise activity was measured over a five day period at 20 min intervals, allowing the capture of the circadian rhythm of the exercise activity.

In assay [2] the test system is aged C57BL/6J mice. The assay is described as follows: Grip test in aged mice. Type of assay: in vivo, mouse. To be noted: high fat diet, 50 mg/kg/day, 26 weeks, FIG. 22. The procedure:
To examine the effects of urolithin A treatment on muscle function in aged mammals, 17-month-old C57BL/6J mice were treated with either a high fat rodent diet or a high fat rodent diet containing urolithin A mixed with food to reach a dosing of 50 mg/kg/day delivered to the mice.
Following 26 weeks of treatment with urolithin A, mice were assessed for their neuromuscular function by means of a grip test. Using the grip test, one can measure the forelimb grip strength of mice. Mice were placed on a grid to enable their fore paws grasp the support. To measure the grip strength, mice are pulled backward in the sensor axis until they are no longer able to hold the grid.

Assay [3] deals with Human Aortic Endothelial Cells (HAOEC). Description: Autophagy western blot in human aortic endothelial cells. To be noted: 16 hours. It is filed as cell-based. The procedure:
Human Aortic Endothelial Cells (HAOEC) are primary endothelial cells isolated from normal human aorta. They were sourced from Cell Applications Inc. (CAI), San Diego, USA and obtained cryopreserved at the second passage from the European Collection of Cell Cultures (ECACC). The cells were thawed and cultured with Endothelial Cell Growth Medium, provided by the ECACC, catalog number 06091509 (CAI No. 211-500), in a 37° C., 5% CO2 humidified incubator; media was changed 24 hours after thawing. Endothelial Cell Growth Medium was changed every other day until the cells reached 80% confluency. Cells were then subcultured into four 6-well dishes and after overnight incubation were treated with different concentrations of urolithin A, 10 μM, 20 μM, and 50 μM, or a DMSO control for a period of 16 hours, 3 wells per treatment. Control cells were treated with DMSO at an equivalent final concentration for the same period and served as the untreated control.
At the end of treatment, cells were lysed with RIPA buffer and applied to SDS-PAGE and analyzed by western blot. Protein expression levels were examined for autophagy-related proteins LC3-I and LC3-II (Cell Signaling antibody #4108), and p62 (Cell Signaling antibody #5114). The housekeeping protein, HSP90 (BD Transduction Laboratories antibody #610418) level was measured as a loading control.
Background: A western blot detects proteins with antibodies after separation by electrophoresis.

Assay [4] deals with C. elegans wild-type Bristol N2. Description: Lifespan of wild-type C. elegans. Type of assay: in vivo. To be noted: for Mean Life Extension (%): Genotype: N2, fed live E. coli (OP50); for median lifespan increased by: FIG. 5; for Lifespan extension compared to control (%): 50 μM UA vs 1% DMSO. Here is the method: C. elegans strains were cultured at 20° C. on nematode growth media (NGM) agar plates seeded with E. coli strain OP50. Strain used was wild-type Bristol N2 provided by the Caenorhabditis Genetics Center (University of Minnesota). All Compounds were dissolved in DMSO. Animals were exposed to compounds from eggs on plates seeded with live OP50 bacteria. Control plates were prepared with the corresponding concentrations of DMSO (0.1%). For lifespan tests, worms were observed using a Nikon SMZ1500 stereomicroscope (Nikon, Melville, NY, USA). […] After 3 days (corresponding to day 0), newly developed 60 to 100 L4 worms were used per condition, scored and transferred to fresh plates every 3 days starting from day 1 (young adult worms). All lifespan experiments were performed at 20° C.
(§1) Lifespan assays were performed with (A) wild-type (N2), (B) sir-2.1(ok434) mutant, (C) aak-2(ok524), (D) daf-16(mu86), (E) eat-2(ad465) and (F) daf-2(e1370) mutant strains of C. elegans maintained during their full life on plates supplemented with either 50 μM of urolithin A or with a control treatment and seeded with OP50 bacteria. Control plates without urolithin A contained an equivalent concentration of DMSO. Worm lifespan assays were performed at 20° C.

In assay [5] the test system is human primary skeletal muscle cells. The assay is described as follows: Autophagy western blot in human primary myoblasts. Type of assay: cell-based. The conditions noted are these: 10 μM, 20 μM, and 50 μM, 16 hours. Here is the method: Human primary skeletal myocytes were cultured in vitro and exposed to increasing concentrations of urolithin A, including 10 μM, 20 μM, and 50 μM for 16 hours. Human skeletal myoblasts were grown in DMEM plus 2% horse serum. Control cells were treated with DMSO at an equivalent final concentration for the same period and served as the untreated control.
(§2) At the end of treatment, cells were lysed with RIPA buffer and applied to SDS-PAGE and analyzed by western blot. Protein expression levels were examined for autophagy-related proteins LC3-I and LC3-II (Cell Signaling antibody #4108), p62 (Cell Signaling antibody #5114), AMPKα (Cell Signaling antibody #2603), and p-AMPKα(Cell Signaling antibody #2531). The housekeeping protein, R-actin (Cell Signaling Antibody #4967) level was measured as a loading control.

The subject of assay [6] is daf-16(mu86) mutant C. elegans. The assay is described as follows: Lifespan assay, daf-16 mutant C. elegans. Type of assay: in vivo. Here is the method:
as §1
daf-16 encodes a FOXO transcription factor.

Assay [7] has as its system mitochondria in muscle of C. elegans strain SJ4103. Description: Mitochondrial GFP reporter in muscle of C. elegans. To be noted: 50 μM from eggs, GFP after one day of adulthood; FIG. 7. It is filed as in vivo.
Method: The worms were treated from eggs to the first day of adulthood. The strains used were the SJ4103 (zcIs14[myo-3::GFP(mit)]), which is a stable transgenic line expressing a mitochondrially localized green fluorescent protein (GFP) with a cleavable mitochondrial import signal peptide under the control of the specific body wall muscle promoter myo-3. GFP expression and quantification was carried out according to the protocol previously described. […] Fluorimetric assays were performed using a Victor X4 multilabel plate reader (Perkin-Elmer Life Science). Eighty worms were picked at random (20 worms per well of a black-walled 96-well plate), and each well was read four times and averaged.
The subject of assay [8] is mouse C2C12 myoblasts. Description: Autophagy western blot in C2C12 myoblasts. Type of assay: cell-based. The conditions noted are these: 10 μM, 20 μM, and 50 μM, 16 hours. Here is the method:
C2C12 myoblast were cultured in Dulbecco's modified Eagle's medium (DMEM) including 4.5 g/L glucose, 20% fetal calf serum, and 50 μg/mL gentamicin. Urolithin A was dissolved in DMSO in a stock solution of […]. Cells were treated at final concentrations of urolithin A of 10 μM, 20 μM, and 50 μM for a period 16 hours. Control cells were treated with DMSO at an equivalent final concentration for the same period and served as the untreated control.
as §2

Bounds are passed on as bounds.

With `O=c1oc2cc(O)ccc2c2ccc(O)cc12` [Urolithin A, urolithin A], the “increase over untreated controls in the cumulative distance covered” value in assay [1] (final two days) is recorded as 29%; in assay [1] (initial 3 days, FIG. 20) it was 25%. Also, the “increase in spontaneous voluntary running on a running wheel” value in assay [1] (55 mg/kg/day, five-day period, FIG. 20) was “at least 25%”. In addition, the forelimb grip strength entry in assay [2] is reported as “greater grip strength”. For the same compound, the “levels of p62” value in assay [3] (10 μM, 20 μM, and 50 μM) is “decrease”; in assay [5], “decrease”; in assay [8] it was “decrease”. The “ratio of LC3-II to LC3-I, induction” value in assay [3] (50 μM of urolithin A, FIG. 18) is recorded as no more than 3 fold. For the same compound, the “Mean Life Extension (%)” value in assay [4] (dose 10 μM) is on record as 27.7%; in assay [4] (dose 50 μM) it was 75%. Also, the “median lifespan increased by” value is 75% in assay [4] (concentration of 50 µM) and 27.7% in assay [4] (concentration of 10 M). Besides, in assay [4] (concentration of 50 µM, exposed from eggs, FIG. 4), the “effect on lifespan in C. elegans” value is given as “extended the lifespan”. The “Median lifespan” value is on record as 28 days in assay [4] (wild-type (N2), 50 μM UA) and 23 days in assay [6] (50 μM UA). The “Lifespan extension compared to control (%)” value is 75% in assay [4] (wild-type (N2)); “+75%” in assay [4] (wild-type (N2), listed as UA); “+43.7%” in assay [6] (50 μM UA vs 1% DMSO). Also, the “ratio of pAMPKα/AMPKα” value in assay [5] and in assay [8] was “increasing several fold” throughout. Further, the “ratio of LC3-II to LC3-I” value in assay [5] (FIG. 17) and in assay [8] (FIG. 16) was “dose-dependent increase” in each case. Moreover, the “expression of the mitochondrial GFP reporter (myo-3 promoter)” value in assay [7] was “striking increase in GFP expression”.

Source of the values: patent publication US11931335B2, “Enhancing autophagy or increasing longevity by administration of urolithins or precursors thereof” (Amazentis SA, priority 2012, dated 2024).
